# According to patent publication US11957767B2, “Compound targeting prostate specific membrane antigen, and preparation method and application thereof” (YANTAI LANNACHENG BIOTECHNOLOGY CO., LTD., priority 2021, dated 2024):
# How the values were obtained:
# [1] = tested on: PSMA positive lesions; details: human, in vivo; cited from earlier work
# [2] = tested on: subcutaneous transplanted tumor, prostate cancer (22RV1); test: Uptake of 177Lu labeled complex in subcutaneous transplanted tumor model mice with prostate cancer (tumor uptake and tissue distribution); assay type: in vivo; details: 24 h after intravenous tail injection of 5 MBq; 22RV1 tumor model mice; FIG. 1
# Protocol: The compound in Example 31 or another prior radioactive probe targeting PSMA was injected into subcutaneous transplanted tumor model mice with prostate cancer, and uptake results in tumors and distribution results in tissues were compared. A specific plan is as follows.
# The subcutaneous transplanted tumor model mice with prostate cancer (22RV1) were randomly divided into 3 groups including an experimental group, a control group A and a control group B with 3 mice in each group.
# […] complex with purity of greater than 95% was prepared according to the method in Example 31. The complex is obtained by labeling compound 10 in Example 1 with ^177Lu, which was used as medicine B for the experimental group in the experiment. […]
# 5 MBq of medicine B, the medicine A and the medicine C were intravenously injected into tails of the mice in the experimental group, the control group A and the control group B, respectively. […] The obtained tissues were weighed, and measured by a y counter to obtain the radioactive counting of samples in the experimental group, the control group A and the control group B. Measured data were subtracted from the background, the decay time was corrected, and then average values were obtained. The data was expressed as the percentage of injected dose per gram tissue (% ID/g) of the dose uptake in tissues per gram in the injected dose.
compound,measurement,setting,value
O=C([O-])CN1CCN(CC(=O)[O-])CCN(CC(=O)NCC2CCC(C(=O)N[C@@H](Cc3ccc4ccccc4c3)C(=O)NCCCC[C@H](NC(=O)N[C@@H](CCC(=O)O)C(=O)O)C(=O)O)CC2)CCN(CC(=O)[O-])CC1.[177Lu+3] (some centres unmarked) [^177Lu-PSMA 617],patients with no response to therapy,[1],About 30%
same,uptake in tumors,[2],7.60±1.22 % ID/g
